Test results as given in patent US8324179B2, “Nucleoside analogs for antiviral treatment” (Gilead Sciences, Inc., priority 2007, dated 2012).
pEC50, pIC50: −log10 of the molar value. Where two headings read alike, the source gives them in different places.

Experiments:
Replicon cells = experiment: HCV EC50 determination, replicon luciferase assay; format: cell-based; conditions: 3 days, luciferase activity, read-out: Replicon inhibiting potency EC50
Experimental: Replicon cells were seeded in 96-well plates at a density of 8×10^3 cells per well in 100 μL of culture medium, excluding Geneticin. Compound was serially diluted in 100% DMSO and then added to the cells at a 1:200 dilution, achieving a final concentration of 0.5% DMSO and a total volume of 200 μL. Plates were incubated at 37° C. for 3 days, after which culture medium was removed and cells were lysed in lysis buffer provided by Promega's luciferase assay system. Following the manufacturer's instruction, 100 μL of luciferase substrate was added to the lysed cells and luciferase activity was measured in a TopCount luminometer.

HCV Δ21 NS5b polymerase = biological target: T1, HCV Δ21 NS5b polymerase (Hepatitis C virus genotype 1b, UniProt P26663); experiment: NS5b polymerase assay (HCV IC50 determination); format: biochemical
T1 construct: 75 nM HCV Δ21 NS5b polymerase
Experimental: Assay Protocol: NS5b polymerase assay (40 μL) was assembled by adding 28 μL polymerase mixture (final concentration: 50 mM Tris-HCl at pH 7.5, 10 mM KCL, 5 mM MgCl2, 1 mM DTT, 10 mM EDTA, 4 ng/μL of RNA template, and 75 nM HCV Δ21 NS5b polymerase) to assay plates followed by 4 μL of compound dilution. The polymerase and compound were pre-incubated at 35° C. for 10 minute before the addition of 8 μL of nucleotide substrate mixture (33P-α-labeled competing nucleotide at KM and 0.5 mM of the remaining three nucleotides). The assay plates were covered and incubated at 35° C. for 90 min. Reactions were then filtered through 96-well DEAE-81 filter plates via vacuum. The filter plates were then washed under vacuum with multiple volumes of 0.125 M NaHPO4, water, and ethanol to remove unincorporated label. Plates were then counted on TopCount to assess the level of product synthesis over background controls. The IC50 value was determined using Prism fitting program.

T1 sequence (P26663 2420-2989, stated change not applied): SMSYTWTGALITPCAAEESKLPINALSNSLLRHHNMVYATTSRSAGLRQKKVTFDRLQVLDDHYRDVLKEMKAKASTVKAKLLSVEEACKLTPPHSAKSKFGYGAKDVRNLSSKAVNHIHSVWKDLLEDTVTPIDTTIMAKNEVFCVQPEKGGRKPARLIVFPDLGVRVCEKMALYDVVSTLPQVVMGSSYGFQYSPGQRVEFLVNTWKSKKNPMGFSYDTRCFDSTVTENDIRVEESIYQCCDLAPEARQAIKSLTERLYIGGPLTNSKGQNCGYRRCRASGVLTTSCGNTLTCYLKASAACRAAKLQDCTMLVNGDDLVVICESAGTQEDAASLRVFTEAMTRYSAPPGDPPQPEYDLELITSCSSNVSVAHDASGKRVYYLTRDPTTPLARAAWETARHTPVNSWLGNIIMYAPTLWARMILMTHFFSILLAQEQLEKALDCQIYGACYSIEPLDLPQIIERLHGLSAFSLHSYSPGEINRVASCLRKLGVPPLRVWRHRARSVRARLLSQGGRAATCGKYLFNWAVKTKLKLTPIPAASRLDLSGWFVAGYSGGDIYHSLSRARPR

| Compound | pEC50 (Replicon cells; Hepatitis C virus, 72 h) | pIC50 (HCV Δ21 NS5b polymerase) | also measured |
| --- | --- | --- | --- |
| Nc1ncnc2c1cnn2[C@@H]1O[C@H](/C=C/P(=O)(O)O)[C@@H](O)[C@H]1O [Compound 25.3, (E)-2-((2R,3S,4R,5R)-5-(4-amino-1H-pyrazolo[3,4-d]pyrimidin-1-yl)-3.4-dihydroxy-tetrahydrofuran-2-yl)vinylphosphonic acid] | – | – | pEC50 (Replicon cells): < 4.00 |
| Nc1ncnc2c1nnn2[C@@H]1O[C@H](/C=C/P(=O)(O)O)C[C@H]1O [Compound 38.2, (E)-2-((2S,4R,5R)-5-(7-amino-3H-[1,2,3]triazolo[4,5-d]pyrimidin-3-yl)-4-hydroxy-tetrahydrofuran-2-yl)vinylphosphonic acid] | < 4.00 | – | – |
| CN(NS(C)(=O)=O)c1ncnc2c1ncn2[C@@H]1O[C@H](/C=C/P(=O)(O)OP(=O)(O)OP(=O)(O)O)C[C@H]1O [Compound 60.5] | – | < 4.00 | – |
| O=c1ccn([C@@H]2O[C@H](/C=C/P(=O)(O)O)C[C@H]2O)c(=O)[nH]1 [Compound 50.6] | < 4.00 | – | – |
| CCCCOC(=O)[C@H](C)NP(=O)(/C=C/[C@@H]1C[C@@H](O)[C@H](n2cnc3c(=O)[nH]c(N)nc32)O1)N[C@@H](C)C(=O)OCCCC [Compound 9.11] | – | – | pEC50 (Replicon cells): > 5.00 |
| Nc1ncnc2c1nnn2[C@@H]1O[C@H](/C=C/P(=O)(O)OP(=O)(O)OP(=O)(O)O)[C@@H](O)[C@H]1O [Compound 6.8] | – | < 4.00 | – |
| COC1C(O)C(C=CP(=O)(O)O)OC1n1ccc(N)nc1=O (stereo not shown) [Compound 17.5, {2-[5-(4-Amino-2-oxo-2H-pyrimidin-1-yl)-3-hydroxy-4-methoxy-tetrahydro-furan-2-yl]-vinyl}-phosphonic acid] | < 4.00 | – | – |
| Nc1nc2c(ncn2[C@@H]2O[C@H](/C=C/P(=O)(O)OP(=O)(O)OP(=O)(O)O)C[C@H]2O)c(=O)[nH]1 [Compound 9.12] | – | < 4.00 | – |
| O=C1C=Cc2nn([C@@H]3O[C@H](/C=C/P(=O)(O)OP(=O)(O)OP(=O)(O)O)C[C@H]3O)c3ncnc(c23)N1 [Compound 52.6] | – | > 5.00 | – |
| CCCCOC(=O)[C@H](C)NP(=O)(/C=C/[C@H]1O[C@@H](n2cnc3c(N)ncnc32)[C@@H](F)[C@@H]1O)N[C@@H](C)C(=O)OCCCC [Compound 56.6] | – | – | pEC50 (Replicon cells): > 5.00 |
| Nc1nc(N)c2ncn(C3OC(C=CP(=O)(O)O)CC3O)c2n1 (stereo not shown) [Compound 13.2, {2-[5-(2,6-Diamino-purin-9-yl)-4-hydroxy-tetrahydro-furan-2-yl]-vinyl}-phosphonic acid] | < 4.00 | – | – |
| CCCCOC(=O)[C@H](C)NP(=O)(/C=C/[C@H]1O[C@@H](n2cnc3c(N)ncnc32)[C@H](F)[C@@H]1O)N[C@@H](C)C(=O)OCCCC [Compound 55.8] | 4.00 to 5.00 | – | – |
| Nc1ncnc2c1ncn2C1OC(C=CP(=O)(O)O)CC1O (stereo not shown) [Compound 12.2, {2-[5-(6-Amino-purin-9-yl)-4-hydroxy-tetrahydro-furan-2-yl]-vinyl}-phosphonic acid] | > 5.00 | – | – |
| Nc1nc2c(nnn2C2OC(C=CP(=O)(O)O)CC2O)c(=O)[nH]1 (stereo not shown) [Compound 10.2, {2-[5-(5-Amino-7-oxo-6,7-dihydro-[1,2,3]triazolo[4,5-d]pyrimidin-3-yl)-4-hydroxy-tetrahydro-furan-2-yl]-vinyl}-phosphonic acid] | 4.00 to 5.00 | – | – |
| COC1C(O)C(C=CP(=O)(O)OP(=O)(O)OP(=O)(O)O)OC1n1cnc2c(=O)[nH]c(N)nc21 (stereo not shown) [Compound 16.95] | – | 4.00 to 5.00 | – |
| Nc1ncnc2c1nnn2C1OC(C=CP(=O)(O)OP(=O)(O)OP(=O)(O)O)CC1O (stereo not shown) [Compound 38.4] | – | 4.00 to 5.00 | – |
| Nc1ncnc2c1nnn2C1OC(CCP(=O)(O)O)C(O)C1O (stereo not shown) [Compound 6.7, {2-[5-(7-Amino-[1,2,3]triazolo[4,5-d]pyrimidin-3-yl)-3,4-dihydroxy-tetrahydro-furan-2-yl]-ethyl}-phosphonic acid] | < 4.00 | – | – |

| Compound | pEC50 (Replicon cells; Hepatitis C virus, 72 h) | pIC50 (HCV Δ21 NS5b polymerase) | also measured |
| --- | --- | --- | --- |
| CCCCOC(=O)[C@H](C)NP(=O)(/C=C/[C@@H]1C[C@@H](O)[C@H](n2cnc(C(N)=O)n2)O1)N[C@@H](C)C(=O)OCCCC [Compound 54.3] | < 4.00 | – | – |
| Nc1ncnc2c1ncn2[C@@H]1O[C@H](/C=C/P(=O)(O)OP(=O)(O)OP(=O)(O)O)[C@@H](O)[C@H]1F [Compound 55.7] | – | > 5.00 | – |
| C[C@@]1(O)[C@H](O)[C@@H](/C=C/P(=O)(O)O)O[C@H]1n1nnc2c(N)ncnc21 [Compound 27.8, (E)-2-((2R,3R,4R,5R)-5-(7-amino-3H-[1,2,3]triazolo[4,5-d]pyrimidin-3-yl)-3,4-dihydroxy-4-methyl-tetrahydrofuran-2-yl)vinylphosphonic acid] | < 4.00 | – | – |
| Nc1ncnc2c1ncn2[C@@H]1O[C@H](/C=C/P(=O)(O)O)[C@@H](O)[C@H]1O [Compound 24.4, (E)-2-((2R,3S,4R,5R)-5-(6-amino-9H-purin-9-yl)-3,4-dihydroxy-tetrahydrofuran-2-yl)vinylphosphonic acid] | < 4.00 | – | – |
| COC1C(O)C(C=CP(=O)(O)O)OC1n1cnc2c(=O)[nH]c(N)nc21 (stereo not shown) [Compound 16.9, {2-[5-(2-Amino-6-oxo-1,6-dihydro-purin-9-yl)-3-hydroxy-4-methoxy-tetrahydro-furan-2-yl]-vinyl}-phosphonic acid] | < 4.00 | – | – |
| CCCCOC(=O)[C@H](C)NP(=O)(/C=C/[C@@]1(N=[N+]=[N-])O[C@@H](n2ccc(=O)[nH]c2=O)[C@H](O)[C@@H]1O)N[C@@H](C)C(=O)OCCCC [Compound 48.7] | 4.00 to 5.00 | – | – |
| CNc1nc(N)nc2c1ncn2C1OC(C=CP(=O)(O)O)CC1O (stereo not shown) [Compound 46.3, {2-[5-(2-Amino-6-methylamino-purin-9-yl)-4-hydroxy-tetrahydro-furan-2-yl]-vinyl}-phosphonic acid] | < 4.00 | – | – |
| CC(=O)Nc1nc2c(ncn2C2OC(C=CP(=O)(O)O)CC2OC(=O)c2ccccc2)c(=O)[nH]1 (stereo not shown) [Compound 9.10, Benzoic acid 2-(2-acetylamino-6-oxo-1,6-dihydro-purin-9-yl)-5-(2-phosphono-vinyl)-tetrahydro-furan-3-yl ester] | 4.00 to 5.00 | – | – |
| O=c1ccn([C@@H]2O[C@H](/C=C/P(=O)(O)OP(=O)(O)OP(=O)(O)O)[C@@H](O)[C@H]2F)c(=O)[nH]1 [Compound 58.7] | – | 4.00 to 5.00 | – |
| CNc1ncnc2c1ncn2C1OC(C=CP(=O)(O)O)CC1O (stereo not shown) [Compound 47.2, {2-[4-Hydroxy-5-(6-methylamino-purin-9-yl)-tetrahydro-furan-2-yl]-vinyl}-phosphonic acid] | < 4.00 | – | – |
| Nc1nc(N)c2nnn(C3OC(C=CP(=O)(O)OP(=O)(O)OP(=O)(O)O)CC3O)c2n1 (stereo not shown) [Compound 53.4] | – | < 4.00 | – |
| {2-[5-(4-Amino-2-oxo-2H-pyridin-1-yl)-4-hydroxy-tetrahydro-furan-2-yl]-vinyl}-phosphonic acid [Compound 11.2] | – | – | pEC50 (Replicon cells): < 4.00 |
| Nc1nc2c(nnn2[C@@H]2O[C@H](/C=C/P(=O)(O)OP(=O)(O)OP(=O)(O)O)C[C@H]2O)c(=O)[nH]1 [Compound 10.4] | – | < 4.00 | – |
| Nc1ncnc2c1ncn2[C@@H]1O[C@H](/C=C/P(=O)(O)OP(=O)(O)OP(=O)(O)O)[C@@H](O)[C@@H]1F [Compound 56.5] | – | < 4.00 | – |
| Nc1nc2c(ncn2C2OC(C=CP(=O)(O)O)C(O)C2O)c(=O)[nH]1 (stereo not shown) [Compound 18.8, {2-[5-(2-Amino-6-oxo-1,6-dihydro-purin-9-yl)-3,4-dihydroxy-tetrahydro-furan-2-yl]-vinyl}-phosphonic acid] | 4.00 to 5.00 | – | – |
| CCCCOC(=O)[C@H](C)NP(=O)(/C=C/[C@@H]1C[C@@H](O)[C@H](n2nnc3c(=O)[nH]c(N)nc32)O1)N[C@@H](C)C(=O)OCCCC [Compound 10.3] | < 4.00 | – | – |
| NC(=O)c1ncn([C@@H]2O[C@H](/C=C/P(=O)(O)OP(=O)(O)OP(=O)(O)O)C[C@H]2O)n1 [Compound 54.4] | – | < 4.00 | – |
